Source: patent US20250326771A1, “PIPERAZINE DERIVATIVES USEFUL IN HIV THERAPY” (VIIV HEALTHCARE COMPANY, priority 2022, published 2025)

Key:
[1] = test system: Jurkat HIV-luciferase clones; test: Jurkat latency reversal assay; format: cell-based; conditions: Homo sapiens, 48 h; Jurkat latency reversal assay potency; read-out: Jurkat pEC50 (converted)
Method: Jurkat HIV-luciferase clones were maintained in RPMI medium 1640 (Gibco by Life Technologies) containing 10% (vol/vol) fetal bovine serum (SAFC/Sigma-Aldrich) and 25 units/mL penicillin, 25 units/mL streptomycin (Gibco by Life Technologies), and were split 1:4 every 3 to 4 days to maintain a cell density of ˜0.3 to 1 million cells/mL. The Jurkat clones were maintained with the addition of 500 nM EFV in the medium. Three Jurkat cell clones (C16, 115, and N6), each harboring one or two integrated HIV proviruses expressing the luciferase reporter gene, were added at equal amounts for a total of 5,000 cells per well to 384-well plates containing compound titrations. Dose-response testing was performed on compounds dissolved in dimethyl sulfoxide (DMSO; Fisher Scientific, Merelbeke, Belgium) dispensed in duplicate serial 3-fold, 14-point titrations using a D300e Digital Droplet Dispenser (Hewlett-Packard) to give final assay concentrations of 10 μM to […] in 50 μL of medium at 0.5% DMSO (vol/vol) final concentration. Cells and compound were incubated at 37° C. for 48 hours, unless otherwise indicated, followed by the addition of 20 μL of Steady-Glo® Luciferase (Promega). Luminescence resulting from the induction of the virally expressed luciferase was measured using an EnVision 2102 Multilabel Plate Reader (Perkin Elmer). Dose-response relationships were analyzed with GraphPad PRISM 6 using a four-parameter logistic regression model to calculate the concentration of compound that gives half-maximal response (EC50) and the maximal percent activation compared to the vehicle control.

cIAP1-BIR3 = cIAP1-BIR3 (Homo sapiens (Human), UniProt Q13490); test: BIR binding assay (FRET competition), cIAP1 BIR3
Method: (§1) The BIR domain binding assays are FRET based competition assays that utilize His-tagged versions of each of the BIR2 and BIR3 domains from cIAP1, cIAP2, and XIAP (each domain assayed separately) each at a custom optimal concentration and a probe, 200 nM SMAC/DIABLO peptide […] labelled with AlexaFluor647 (part #crb 1110326h, Discovery Peptides). The assay is conducted in 50 mM HEPES, […], 1 mM CHAPS, 5% Glycerol, 1 mM DTT, in dI water with a final pH of 7.4 and final volume of 20 uL. Final protein domain concentrations are: 50 nM cIAP1-BIR3 (Part #APT-11-370 Reaction Biology), 100 nM XIAP-BIR3 (Part #APT-11-351 Reaction Biology), 200 nM XIAP-BIR2 (Part #APT-11-470 Reaction Biology), 325 nM cIAP2-BIR2 (Part #APT-11-489 Reaction Biology), 50 nM cIAP2-BIR3 (Part #APT-11-372 Reaction Biology), 325 nM cIAP1-BIR2 (Part #APT-11-487 Reaction Biology). Compounds were plated using a HP Tecan D300 printer in a final total volume of 202 nl and DMSO concentration normalized across the 15-point, 3-fold dilution series. Peptide and probe were prepared at 2× relative to the concentrations above in binding buffer, 10 uL added to the prepared compound plates, and incubated for 60 minutes. LANCE Eu-W1024 (part #AD0401 Perkin Elmer #, vendor) was prepared at 2× concentration in binding buffer for final concentration of 2 nM, 10 uL added to each well, and plates incubated for 30 minutes. Plates were read on an ENVISION multifunction plate reader with […] laser excitation to obtain the 615 nm/665 nm emission ratio as indicative of probe:protein proximity. Data was analyzed using GraphPad PRISM and curves fit using log(inhibitor) vs. response—Variable slope (four […] method to obtain IC50 and pIC50 values.

XIAP-BIR3 = XIAP-BIR3 (Homo sapiens (Human), UniProt P98170); test: BIR binding assay (FRET competition), XIAP BIR3
Method: as §1

cIAP2-BIR3 = cIAP2-BIR3 (Homo sapiens (Human), UniProt Q13489); test: BIR binding assay (FRET competition), cIAP2 BIR3
Method: as §1

Sequence of cIAP1-BIR3 (Q13490 253-363): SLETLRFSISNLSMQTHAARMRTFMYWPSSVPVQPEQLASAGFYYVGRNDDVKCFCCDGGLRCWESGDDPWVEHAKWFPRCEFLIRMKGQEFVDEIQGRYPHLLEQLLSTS
Sequence of cIAP2-BIR3 (Q13489 238-349): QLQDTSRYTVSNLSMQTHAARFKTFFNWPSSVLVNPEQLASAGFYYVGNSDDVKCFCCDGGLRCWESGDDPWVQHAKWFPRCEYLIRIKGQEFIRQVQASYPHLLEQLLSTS
Sequence of XIAP-BIR3 (P98170 241-356): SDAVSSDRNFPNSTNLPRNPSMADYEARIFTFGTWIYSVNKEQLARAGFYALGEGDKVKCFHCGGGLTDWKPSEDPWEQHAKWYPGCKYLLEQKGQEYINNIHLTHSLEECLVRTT

Structure (SMILES) | EC50 [1] [nM] | IC50 (cIAP1-BIR3) [nM] | IC50 (XIAP-BIR3) [nM] | IC50 (cIAP2-BIR3) [nM]
C[C@@H]1CN(CC(=O)N2CC(C)(C)c3[nH]c(=O)c(Cc4ccc(F)cc4)cc32)[C@@H](CN2CCO[C@H](COc3ccc(C(C)(C)c4cccc(C(C)(C)c5ccc(OC[C@@H]6CN(C[C@H]7CN[C@H](C)CN7CC(=O)N7CC(C)(C)c8[nH]c(=O)c(Cc9ccc(F)cc9)cc87)CCO6)cc5)c4)cc3)C2)CN1 (stereo in doubt) [Example 61, 1,1′-(2,2′-((3R,3′R,6R,6′R)-(((2S,2'S)-((((1,3-phenylenebis(propane-2,2-diyl))bis(4,1-phenylene))bis(oxy))bis(methylene))bis(morpholine-2,4-diyl))bis(methylene))bis(3-methylpiperazine-6,1-diyl))bis(acetyl))bis(6-(4-fluorobenzyl)-3,3-dimethyl-1,2,3,4-tetrahydro-5H-pyrrolo[3,2-b]pyridin-5-one)] | 12.6 to 63.1 | 31.6 to 501 | 31.6 to 501 | 31.6 to 501
COc1cc(Cl)ccc1Cc1cc2c([nH]c1=O)C(C)(C)CN2C(=O)CN1C[C@@H](C)NC[C@@H]1CN1CCO[C@H](C(=O)NCc2ccc(CNC(=O)[C@@H]3CN(C[C@H]4CN[C@H](C)CN4CC(=O)N4CC(C)(C)c5[nH]c(=O)c(Cc6ccc(Cl)cc6OC)cc54)CCO3)cc2)C1 [Compound 169, (2S,2′S)-N,N′-(1,4-phenylenebis(methylene)) bis(4-(((2R,5R)-1-(2-(6-(4-chloro-2-methoxybenzyl)-3,3-dimethyl-5-oxo-2,3,4,5-tetrahydro-1H-pyrrolo[3,2-b]pyridin-1-yl)-2-oxoethyl)-5-methylpiperazin-2-yl)methyl)morpholine-2-carboxamide)] | 12.6 to 63.1 | 7.94 to 15.8 | 31.6 to 501 | 1.38 to 7.94
C[C@@H]1CN(CC(=O)N2CC(C)(C)c3[nH]c(=O)c(Cc4ccc(Cl)cc4Cl)cc32)[C@@H](CN2CCO[C@H](COc3cccc(OC[C@@H]4CN(C[C@H]5CN[C@H](C)CN5CC(=O)N5CC(C)(C)c6[nH]c(=O)c(Cc7ccc(Cl)cc7Cl)cc65)CCO4)c3)C2)CN1 [Compound 187] | 0.49 to 12.6 | 7.94 to 15.8 | 31.6 to 501 | 7.94 to 15.8
C[C@@H]1CN(CC(=O)N2CC(C)(C)c3[nH]c(=O)c(Cc4ccc(F)cc4)cc32)[C@@H](CN2CCN(S(=O)(=O)c3ccc(Oc4ccc(S(=O)(=O)N5CCN(C[C@H]6CN[C@H](C)CN6CC(=O)N6CC(C)(C)c7[nH]c(=O)c(Cc8ccc(F)cc8)cc76)[C@H](C)C5)cc4)cc3)C[C@H]2C)CN1 [Example 30, 2,2′-((3R,3′R,6R,6′R)-(((2R,2′R)-(oxybis(4,1-phenylenesulfonyl))bis(2-methylpiperazine-4,1-diyl))bis(methylene))bis(3-methylpiperazine-6,1-diyl))bis(1-(6-(4-fluorobenzyl)-3,3-dimethyl-5-oxo-2,3,4,5-tetrahydro-1H-pyrrolo[3,2-b]pyridin-1-yl)ethan-1-one)] | 316 to 3310 | 31.6 to 501 | 31.6 to 501 | 15.8 to 31.6
C[C@@H]1CN(CC(=O)N2CC(C)(C)c3[nH]c(=O)c(Cc4ccc(F)cc4)cc32)[C@@H](CN2CCO[C@H](COc3ccc(-c4ccc(OC[C@@H]5CN(C[C@H]6CN[C@H](C)CN6CC(=O)N6CC(C)(C)c7[nH]c(=O)c(Cc8ccc(F)cc8)cc76)CCO5)cc4)cc3)C2)CN1 [Example 50, 1,1′-(2,2′-((3R,3′R,6R,6′R)-(((2S,2'S)—(([1,1′-biphenyl]-4,4′-diylbis(oxy))bis(methylene))bis(morpholine-2,4-diyl))bis(methylene))bis(3-methylpiperazine-6,1-diyl))bis(acetyl))bis(6-(4-fluorobenzyl)-3,3-dimethyl-1,2,3,4-tetrahydro-5H-pyrrolo[3,2-b]pyridin-5-one)] | 0.49 to 12.6 | 1.38 to 7.94 | 1.38 to 7.94 | 1.38 to 7.94
C[C@@H]1CN(CC(=O)N2CC(C)(C)c3[nH]c(=O)c(Cc4ccc(F)cc4)cc32)[C@@H](CN2CCO[C@H](COc3ccc(Cc4ccc(OC[C@@H]5CN(C[C@H]6CN[C@H](C)CN6CC(=O)N6CC(C)(C)c7[nH]c(=O)c(Cc8ccc(F)cc8)cc76)CCO5)cc4)cc3)C2)CN1 [Example 53, 1,1′-(2,2′-((3R,3′R,6R,6′R)-(((2S,2'S)-(((methylenebis(4,1-phenylene))bis(oxy))bis(methylene))bis(morpholine-2,4-diyl))bis(methylene))bis(3-methylpiperazine-6,1-diyl))bis(acetyl))bis(6-(4-fluorobenzyl)-3,3-dimethyl-1,2,3,4-tetrahydro-5H-pyrrolo[3,2-b]pyridin-5-one)] | 12.6 to 63.1 | 31.6 to 501 | 31.6 to 501 | 31.6 to 501
C[C@@H]1CN(CC(=O)N2CC(C)(C)c3[nH]c(=O)c(Cc4ccc(F)cc4)cc32)[C@@H](CN2CCO[C@H](COc3ccc(C(=O)c4ccc(OC[C@@H]5CN(C[C@H]6CN[C@H](C)CN6CC(=O)N6CC(C)(C)c7[nH]c(=O)c(Cc8ccc(F)cc8)cc76)CCO5)cc4)cc3)C2)CN1 [Example 54, 1,1′-(2,2′-((3R,3′R,6R,6′R)-(((2S,2'S)-(((carbonylbis(4,1-phenylene))bis(oxy))bis(methylene))bis(morpholine-2,4-diyl))bis(methylene))bis(3-methylpiperazine-6,1-diyl))bis(acetyl))bis(6-(4-fluorobenzyl)-3,3-dimethyl-1,2,3,4-tetrahydro-5H-pyrrolo[3,2-b]pyridin-5-one)] | 0.49 to 12.6 | 15.8 to 31.6 | 15.8 to 31.6 | 15.8 to 31.6
C[C@@H]1CN(CC(=O)N2CC(C)(C)c3[nH]c(=O)c(Cc4ccc(F)cc4)cc32)[C@@H](CN2CCO[C@H](COc3ccc(C(C)(C)c4ccc(OC[C@@H]5CN(C[C@H]6CN[C@H](C)CN6CC(=O)N6CC(C)(C)c7[nH]c(=O)c(Cc8ccc(F)cc8)cc76)CCO5)cc4)cc3)C2)CN1 [Example 56, 1,1′-(2,2′-((3R,3′R,6R,6′R)-(((2S,2'S)-(((propane-2,2-diylbis(4,1-phenylene))bis(oxy))bis(methylene))bis(morpholine-2,4-diyl))bis(methylene))bis(3-methylpiperazine-6,1-diyl))bis(acetyl))bis(6-(4-fluorobenzyl)-3,3-dimethyl-1,2,3,4-tetrahydro-5H-pyrrolo[3,2-b]pyridin-5-one)] | 12.6 to 63.1 | 31.6 to 501 | 31.6 to 501 | 31.6 to 501
C[C@@H]1CN(CC(=O)N2CC(C)(C)c3[nH]c(=O)c(Cc4ccc(F)cc4)cc32)[C@@H](CN2CCC(CCCOc3cccc(OCCCC4CCN(C[C@H]5CN[C@H](C)CN5CC(=O)N5CC(C)(C)c6[nH]c(=O)c(Cc7ccc(F)cc7)cc65)CC4)c3)CC2)CN1 [Example 109, 1,1′-(2,2′-((3R,3′R,6R,6′R)-((((1,3-phenylenebis(oxy))bis(propane-3,1-diyl))bis(piperidine-4,1-diyl))bis(methylene))bis(3-methylpiperazine-6,1-diyl))bis(acetyl))bis(6-(4-fluorobenzyl)-3,3-dimethyl-1,2,3,4-tetrahydro-5H-pyrrolo[3,2-b]pyridin-5-one)] | 12.6 to 63.1 | 15.8 to 31.6 |  | 7.94 to 15.8
